≈ marks a conversion by molar mass, not a printed value. Read-outs that look alike come from different tables or passages of the source.
Legend:
RVFV strain MP-12 [1] = test: microbe, parasite or virus in culture; format: cell-based, Rift Valley fever virus; conditions: Rift Valley fever virus, Vero
RVFV MP-12 = test: microbe, parasite or virus in culture; format: cell-based, Rift Valley fever virus; conditions: Rift Valley fever virus, Vero, read-out: Estimated EC50
RVFV strain MP-12 [2] = test: microbe, parasite or virus in culture; format: cell-based, Rift Valley fever virus; conditions: Rift Valley fever virus, A549, 24 h, read-out: A549 EC50
RVFV ZH501 = test: microbe, parasite or virus in culture; format: cell-based, Rift Valley fever virus; conditions: Rift Valley fever virus, Vero, 18 h
LACV = test: microbe, parasite or virus in culture; format: cell-based, La Crosse virus
ZIKV = test: microbe, parasite or virus in culture; format: cell-based, Zika virus
Human RNase H1 = target: T1, Human RNase H1 (Homo sapiens, UniProt O60930); test: biochemical
T1 construct: made in house; host or cells: E. coli
T1 sequence (O60930 1-286): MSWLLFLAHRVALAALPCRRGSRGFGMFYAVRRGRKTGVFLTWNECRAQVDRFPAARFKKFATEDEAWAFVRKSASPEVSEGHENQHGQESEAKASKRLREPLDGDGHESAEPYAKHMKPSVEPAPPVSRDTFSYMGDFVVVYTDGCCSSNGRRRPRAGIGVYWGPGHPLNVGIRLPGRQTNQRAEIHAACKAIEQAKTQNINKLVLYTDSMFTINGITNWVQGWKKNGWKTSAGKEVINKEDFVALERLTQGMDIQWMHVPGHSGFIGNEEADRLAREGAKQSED

Staphylo-coccus spp. = test: organism not typed; format: cell-based; conditions: read-out: Staphylo-coccus spp. (MIC80, μM)
E. coli = test: microbe, parasite or virus in culture; format: cell-based; conditions: Escherichia coli, read-out: E. coli (MIC80, μM)
C. neoformans = test: microbe, parasite or virus in culture; format: cell-based; conditions: Cryptococcus neoformans, read-out: C. neoformans (MIC80, μM)
Vero cells = conditions: African green monkey
in vitro [3] = conditions: African green monkey, Vero CC50
in vitro [4] = conditions: human

Compound: Cc1cc(O)c(=O)c(O)cc1C(=O)c1cccs1 [Compound 308]
- EC50 (RVFV strain MP-12 [1]; 24 h): 1.2 µM
- EC50 (RVFV strain MP-12 [1]; read-out: RVFV (EC50, μM)): 1.16 µM
- EC50 (RVFV strain MP-12 [1]; read-out: Vero EC50): 1.2 µM
- EC50 (RVFV MP-12): 1.77 µM
- EC50 (RVFV strain MP-12 [2]): 8.4 µM
- EC50 (RVFV ZH501): 54 µM
- LACV EC50 (LACV): activity against LACV
- EC50 (LACV; La Crosse virus, Vero C1008, 24 h, read-out: LACV EC50): 15.1 µM
- ZIKV EC50 (ZIKV): not the unrelated flavivirus, Zika virus
- EC50 (ZIKV; Zika virus, Vero C1008, 48 h, read-out: ZIKV EC50): > 120 µM
- IC50 (Human RNase H1): 46 µM
- MIC80 (Staphylo-coccus spp.): 44 µM (≈ 11.5 µg/mL)
- MIC80 (E. coli): 25 µM (≈ 6.56 µg/mL)
- MIC80 (C. neoformans): 11 µM (≈ 2.89 µg/mL)
- CC50 (Vero cells): 111 µM
- CC50 (in vitro [3]): > 120 µM
- CC50 (in vitro [4]): 119 µM
